# US20090221687A1, “Tetracyclic Monoamine Reuptake Inhibitors for Treatment of Cns Diseases and Disorders” (priority 2005, published 2009)
# Read-outs that look alike come from different tables or passages of the source.
# What was measured:
# [1] = target: T1, Serotonin Transporter (SERT) (Homo sapiens, UniProt P31645); conditions: human recombinant HEK-293 cells, historical value for the KD of the ligand, cited from earlier work
# T1 construct: expressed in transfected cells; host or cells: HEK-293 cells
# [2] = target: T2, Norepinephrine Transporter (NET) (Homo sapiens, UniProt P23975); conditions: read-out: KD of the radioligand; human recombinant MDCK cells; historical value for the KD of the ligand; cited from earlier work
# T2 construct: expressed in transfected cells; host or cells: MDCK cells
# pKa = assay type: physicochemical
# logP = assay type: physicochemical
# solubility = assay type: physicochemical; conditions: at 25° C. and ionic strength 0.15 M; read-out: solubility (S)
# mice = experiment: Tail-suspension test in mice: evaluation of antidepressive efficacy; assay type: in vivo; conditions: 10 mg/kg i.p., 30 min prior to testing, vehicle control 70%
# Excerpt: The aim of this study was to evaluate potential antidepressant activity of selected compounds Formula I. The tail suspension test has been routinely employed to test potential antidepressant compounds (See H. G. Vogel and W. H. Vogel, Drug Discovery and Evaluation, Pharmacological Assays, Springer-Verlag, 1997, p 304-305). The percentage of drug-treated animals showing the passive behavior (i.e., the immobility that mice display after active and unsuccessful attempts to escape when suspended by the tail) is measured and compared with vehicle-treated control animals. The duration of immobility is recorded for about 5 minutes. Mice are considered immobile when they hang passively and completely motionless for at least 1 minute. Active antidepressants reduce the immobility.
# Groups of 9 animals were treated with compounds encompassed by Formula I (0.1-10 mg/kg; s.c.), or fluoxetine (10 mg/kg i.p.), and one group of 15 animals was treated with the vehicle by s.c. injection as a […] control. All animals were treated for 30 min prior to testing. The percentage of drug-treated animals showing passive behavior was determined and compared with vehicle-treated controls. […]
# T1 sequence (P31645 whole entry): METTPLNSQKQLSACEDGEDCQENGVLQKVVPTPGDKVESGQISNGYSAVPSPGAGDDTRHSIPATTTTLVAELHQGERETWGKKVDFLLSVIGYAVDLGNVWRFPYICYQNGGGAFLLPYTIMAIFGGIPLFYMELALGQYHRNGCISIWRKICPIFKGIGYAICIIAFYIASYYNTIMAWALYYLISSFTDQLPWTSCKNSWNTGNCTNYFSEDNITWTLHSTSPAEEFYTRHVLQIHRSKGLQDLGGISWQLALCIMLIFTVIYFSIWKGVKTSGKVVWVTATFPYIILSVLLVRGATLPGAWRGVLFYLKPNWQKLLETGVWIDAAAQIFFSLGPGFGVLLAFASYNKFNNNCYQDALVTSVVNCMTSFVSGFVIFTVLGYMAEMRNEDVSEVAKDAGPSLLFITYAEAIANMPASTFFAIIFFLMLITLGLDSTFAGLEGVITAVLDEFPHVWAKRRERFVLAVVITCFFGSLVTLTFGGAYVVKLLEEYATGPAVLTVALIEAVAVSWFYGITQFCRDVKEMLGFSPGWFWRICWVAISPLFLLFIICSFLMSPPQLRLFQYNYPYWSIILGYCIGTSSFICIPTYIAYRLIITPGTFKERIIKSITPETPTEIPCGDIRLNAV
# T2 sequence (P23975 whole entry): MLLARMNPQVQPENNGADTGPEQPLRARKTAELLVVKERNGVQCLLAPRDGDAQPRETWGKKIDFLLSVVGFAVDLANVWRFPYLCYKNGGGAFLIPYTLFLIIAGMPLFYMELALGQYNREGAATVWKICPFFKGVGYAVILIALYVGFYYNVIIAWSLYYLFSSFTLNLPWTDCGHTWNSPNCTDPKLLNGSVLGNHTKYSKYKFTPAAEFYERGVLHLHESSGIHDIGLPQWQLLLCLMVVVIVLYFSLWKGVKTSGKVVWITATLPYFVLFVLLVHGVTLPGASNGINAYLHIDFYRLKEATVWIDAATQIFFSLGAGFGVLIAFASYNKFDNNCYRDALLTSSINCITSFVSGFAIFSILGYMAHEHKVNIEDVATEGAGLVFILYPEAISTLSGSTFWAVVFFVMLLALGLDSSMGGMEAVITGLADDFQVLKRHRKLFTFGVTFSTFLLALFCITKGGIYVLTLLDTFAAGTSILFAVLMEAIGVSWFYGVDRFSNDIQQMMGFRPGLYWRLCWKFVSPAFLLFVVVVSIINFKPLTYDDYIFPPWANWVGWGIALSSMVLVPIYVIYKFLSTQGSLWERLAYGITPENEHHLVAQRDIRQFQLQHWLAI
smiles,measurement,setting,value
"COC(=O)[C@H]1[C@@H](c2ccc(I)cc2)C[C@@H]2CC[C@H]1N2C [[^125I] RTI-55, 3 beta-(4-iodophenyl)tropan-2 beta-carboxylic acid methyl ester]",Kd,[1]; read-out: KD1 of the radioligand,0.17 nM
same,Kd,[1]; read-out: KD2 of the radioligand,2200 nM
same,Kd,[2],24 nM
"CCOC(=O)c1cc2c(s1)-c1cc(Cl)cc(OCCCN(C)C)c1Oc1ccccc1-2.O=C(O)CC(O)(CC(=O)O)C(=O)O [Example 2, 11-Chloro-9-(3-dimethylamino-propoxy)-8-oxa-1-thia-dibenzo[e,h]azulene-2-carboxylic acid ethyl ester citrate salt]",pKa,pKa,6.9
same,logP,logP,4.5
same,solubility,solubility,167 mg/mL
CNCCC(Oc1ccc(C(F)(F)F)cc1)c1ccccc1 (stereo not shown) [fluoxetine],percentage of animals depressive (exhibiting passive behavior),mice,22%
